According to patent US20110155157A1, “CIGARETTE FILTER CONTAINING ROSEMARY EXTRACT AND A METHOD OF REDUCING DNA DAMAGE CAUSED BY HARMFUL AGENTS IN CIGARETTE SMOKE BY USE OF SAID FILTER” (priority 2006, published 2011):

Tested on: calf thymus DNA
Test: BPDE-dG adduct formation by cigarette smoke solution in a cell-free system with DNA and (+)-BP-7,8-diol

Catalase
% BPDE-dG relative to standard CS (CSS diluted 1:19 with PBS pH 7.4, (+) BaP-7,8-diol, room temperature 2 h): 12% | effect on the (−)-anti-BPDE-dG produced (in words): inhibited the formation of the adduct
